Assay results taken from paper PMC11356900, “Synthesis, Structural Properties and Biological Activities of Novel Hydrazones of 2-, 3-, 4-Iodobenzoic Acid” (Molecules, 2024).
In brackets after ≈: the same amount, converted by molar mass.

How the values were obtained:
[1] = test system: Candida albicans ATCC 10231; assay: Broth microdilution MIC/MFC; assay type: cell-based; settings: for MIC: ATCC10231, read-out: MIC; for MFC: ATCC10231, read-out: MFC
From the text: (§1) Procedures of in vitro antimicrobial assays are described in Supplementary Materials.
(§2) 2. Microbiology – in vitro antimicrobial activity assays […]
(§3) using the broth microdilution method according to the European Committee on Antimicrobial Susceptibility Testing (EUCAST) and Clinical and Laboratory Standards Institute guidelines against a panel of reference and clinical or saprophytic strains of mi croorganisms, including the Gram-positive bacteria: Staphylococcus aureus ATCC 43300 (Methi-cillin Resistant S. aureus – MRSA), Staphylococcus aureus ATCC 29213 (Methicillin Susceptible S. aureus – MSSA), Staph-ylococcus epidermidis ATCC 12228, Micrococcus luteus ATCC 10240, Bacillus subtilis ATCC 6633 and Bacillus cereus ATCC 10876), Gram-negative bacteria: Bordetella bronchiseptica ATCC 4617, Escherichia coli ATCC 25922, Klebsiella pneumoniae ATCC 13883, Proteus mirabilis ATCC 12453, Salmonella typhimurium ATCC 14028 and Pseudomonas aeruginosa ATCC 9027, and fungi belonging to yeasts: Candida albicans ATCC 10231, Candida albicans ATCC 2091, Candida parapsilosis ATCC 22019, Candida glabrata ATCC 90030 and Candida krusei ATCC 14243. The microorganisms belonging to ATCC originated from American Type Culture Collection, routinely used for the evaluation of antimicrobials. All the used microbial cultures were first subcultured on nutrient agar or Sabouraud agar at 35°C for 18-24 h or 30°C for 24-48 h for bacteria […]
(§4) The surface of Mueller-Hinton agar (for bacteria) and RPMI 1640 with MOPS (for fungi) were inoculated with the suspensions of bacterial or fungal species. Microbial suspensions were prepared in sterile saline with an optical density of McFarland standard scale 0.5. The samples containing the compounds were dissolved in dimethyl sulfoxide (DMSO).
(§5) Furthermore, the bacterial and fungal suspensions put onto the Petri dishes with solid media containing 2 mg/mL of the tested compounds followed were incubated at 37°C for 24h and 30°C for 48h for bacteria and fungi, respectively.
(§6) The inhibition of microbial growth was estimated comparing with a control culture prepared without any tested sam- […]
(§7) antifungal compounds, respectively.
(§8) Subsequently, MIC (Minimal Inhibitory Concentration) of the compounds was examined by the microdilution broth method, using their two-fold dilutions in Mueller-Hinton broth (for bacteria) and RPMI 1640 broth with MOPS (for fungi) prepared in the 96-well polystyrene plates. The final concentrations of the compounds ranged from 1000 to 0.488 µg/mL. Microbial suspensions were prepared in 0.85% NaCl with an optical density of 0.5 McFarland standard. Next each bacterial or fungal suspension was added per each well containing broth and various concentrations of the exam-ined compounds. After incubation, the MIC was assessed spectrophotometrically as the lowest concentration of the […]
(§9) Appropriate DMSO, growth and sterile controls were carried out. The medium with no tested substances was used as a control The MBC (Minimal Bactericidal Concentration) and MFC (Minimal Fungicidal Concentration) are defined as the lowest concentration of the compounds that is required to kill a particular bacterial or fungal species. The MBC/MFC was determined by removing the culture used for the MIC determination from each well and spotted onto the appro-priate agar medium. The plates were incubated under appropriate conditions for bacteria and fungi. The lowest com-pounds concentration with no visible growth observed was assessed as a bactericidal/fungicidal concentration. All the experiments were repeated three times and the representative data are presented.
(§10) 1. European Committee for Antimicrobial Susceptibility Testing (EUCAST) Determination of minimum inhibitory con-centrations (MICs) of antibacterial agents by broth dilution. EUCAST discussion document E. Dis 5.1. Clin. Microbiol.
(§11) 2. Clinical and Laboratory Standards Institute. Reference method for broth dilution antifungal susceptibility testing of […]

[2] = test system: Candida albicans ATCC 2091; assay: Broth microdilution MIC/MFC; assay type: cell-based; settings: for MIC: ATCC2091, read-out: MIC
From the text: as §1, §2, §3, §4, §5, §6, §7, §8, §9, §10, §11

[3] = test system: Candida glabrata ATCC 90030; assay: Broth microdilution MIC/MFC; assay type: cell-based; settings: Nakaseomyces glabratus; for MFC: ATCC90030, read-out: MFC; for MIC: ATCC90030, read-out: MIC
From the text: as §1, §2, §3, §4, §5, §6, §7, §8, §9, §10, §11

[4] = test system: Candida krusei ATCC 14243; assay: Broth microdilution MIC/MFC; assay type: cell-based; settings: Pichia kudriavzevii; for MFC: ATCC14243, read-out: MFC; for MIC: ATCC14243, read-out: MIC
From the text: as §1, §2, §3, §4, §5, §6, §7, §8, §9, §10, §11

[5] = test system: Candida parapsilosis ATCC 22019; assay: Broth microdilution MIC/MFC; assay type: cell-based; settings: Lodderomyces parapsilosis; for MIC: ATCC22019, read-out: MIC
From the text: as §1, §2, §3, §4, §5, §6, §7, §8, §9, §10, §11

Gram-positive bacteria = assay: Broth microdilution, summary over reference Gram-positive bacteria; assay type: cell-based; settings: for antibacterial activity in words: reference Gram-positive bacteria / studied bacteria
From the text: as §1, §2, §3, §4, §5, §6, §7, §8, §9, §10, §11

Candida spp. = assay: Broth microdilution, summary over reference yeasts; assay type: cell-based; settings: for antifungal activity in words: reference yeasts from Candida spp.
From the text: as §1, §2, §3, §4, §5, §6, §7, §8, §9, §10, §11

[6] = test system: Staphylococcus aureus ATCC 25923; assay: Broth microdilution MIC/MBC; settings: Staphylococcus aureus, ATCC25923
[7] = test system: Staphylococcus aureus ATCC 29213; assay: Broth microdilution MIC/MBC; settings: ATCC29213
[8] = test system: Staphylococcus aureus ATCC 43300; assay: Broth microdilution MIC/MBC; settings: ATCC43300 / MRSA
[9] = test system: Staphylococcus epidermidis ATCC 12228; assay: Broth microdilution MIC/MBC; settings: ATCC12228
[10] = test system: Micrococcus luteus ATCC 10240; assay: Broth microdilution MIC/MBC; settings: Micrococcus luteus, ATCC10240
[11] = test system: Bacillus subtilis ATCC 6633; assay: Broth microdilution MIC/MBC; settings: ATCC6633
[12] = test system: Bacillus cereus ATCC 10876; assay: Broth microdilution MIC/MBC; settings: Bacillus cereus, ATCC10876
[13] = range over the reference Candida spp. strains

Compound	MIC [1] [µg/mL]	MIC [2] [µg/mL]	MFC [3] [µg/mL]	MIC [3] [µg/mL]	MFC [4] [µg/mL]	MIC [4] [µg/mL]	MIC [5] [µg/mL]	antibacterial activity in words (Gram-positive bacteria)	antifungal activity in words (Candida spp.)	melting point [°C]	MIC [6] [µg/mL]	MIC [7] [µg/mL]	MIC [8] [µg/mL]	MIC [9] [µg/mL]	MIC [10] [µg/mL]	MIC [11] [µg/mL]	MIC [12] [µg/mL]	MFC [1] [µg/mL]	MBC [6] [µg/mL]	MBC [9] [µg/mL]	other results
CCOc1cccc(/C=N/NC(=O)c2ccccc2I)c1O [Compound 10, N-[(3-ethoxy-2-hydroxyphenyl)methylidene]-2-iodobenzohydrazide]	> 1000	> 1000	> 1000	1000 (≈ 2440 µM)	> 1000	1000 (≈ 2440 µM)	> 1000	no antimicrobial effect	mild activity or were inactive	167 to 170	> 1000	> 1000	> 1000	> 1000	> 1000	> 1000	> 1000	–	–	–	–
O=C(N/N=C/c1cc(Cl)cc(I)c1O)c1ccccc1I [Compound 12, N-[(5-chloro-2-hydroxy-3-iodophenyl)methylidene]-2-iodobenzohydrazide]	500 (≈ 950 µM)	500 (≈ 950 µM)	> 1000	250 (≈ 475 µM)	> 1000	500 (≈ 950 µM)	1000 (≈ 1900 µM)	–	moderate or mild	215 to 220	125 (≈ 237 µM)	1000 (≈ 1900 µM)	1000 (≈ 1900 µM)	250 (≈ 475 µM)	31.2 (≈ 59.4 µM)	1000 (≈ 1900 µM)	500 (≈ 950 µM)	> 1000	> 1000	500 (≈ 950 µM)	MFC ([2]; ATCC2091, read-out: MFC): > 1000 µg/mL; MFC ([5]; ATCC22019, read-out: MFC): > 1000 µg/mL; MIC (Gram-positive bacteria; range over the reference Gram-positive bacteria, read-out: MIC): 31.2 to 1000 µg/mL (≈ 59.4 to 1900 µM); MFC (Candida spp.; [13]): ≥ 1000 µg/mL; MIC (Candida spp.; [13]): 250 to 1000 µg/mL (≈ 475 to 1900 µM); MBC [7]: > 1000 µg/mL; MBC [8]: > 1000 µg/mL; MBC [10]: 250 µg/mL (≈ 475 µM); MBC [11]: > 1000 µg/mL; MBC [12]: > 1000 µg/mL
O=C(N/N=C/c1cccc([N+](=O)[O-])c1O)c1ccc(I)cc1 [Compound 22, N-[(2-hydroxy-3-nitrophenyl)methylidene]-4-iodobenzohydrazide]	–	–	–	–	–	–	–	No antimicrobial effect	no antifungal activity	198 to 202	–	–	–	–	–	–	–	–	–	–	–
NNC(=O)c1ccccc1I [Compound 4, 2-iodobenzohydrazide]	1000 (≈ 3820 µM)	> 1000	–	> 1000	> 1000	1000 (≈ 3820 µM)	> 1000	–	mild activity or were inactive	182 to 189	500 (≈ 1910 µM)	> 1000	> 1000	1000 (≈ 3820 µM)	1000 (≈ 3820 µM)	> 1000	> 1000	> 1000	> 1000	> 1000	MBC [10]: > 1000 µg/mL
CO/N=C(\C(=O)N[C@@H]1C(=O)N2C(C(=O)O)=C(COC(N)=O)CS[C@H]12)c1ccco1 [CFX, cefuroxime, reference compound]	–	–	–	–	–	–	–	–	–	–	0.49 (≈ 1.15 µM)	–	–	0.24 (≈ 0.566 µM)	0.98 (≈ 2.31 µM)	15.6 (≈ 36.8 µM)	31.2 (≈ 73.6 µM)	–	–	–	–
